Measurements as given in patent publication US8828993B2, “Psychotropic agents having glutamate NMDA activity” (Ramot At Tel-Aviv University Ltd., priority 2006, dated 2014).

Tested on: rats pretreated with MK-801
Experiment: Morris Water Maze in rats pretreated with MK-801
Type: in vivo
Settings: rats, MK-801 alone 0.15 mg/kg i.p. on day 1
Method: (§1) The Morris Water Maze is a well known test aimed to assess spatial cognitive tasks (Anger, et al., Animal test systems to study behavioral dysfunctions of neurodegenerative disorders, Neurotoxicology, 12, 403-13 (1991)). The maze consists of a circular pool measuring 1.80 m in diameter 60 cm in height. The pool was filled with water (21±1° C.) to a depth of 30 cm. A circular hidden escape platform (10 cm in diameter) was placed just below the water surface. The test room contained several permanent extra maze cues such as the rat housing rack, laboratory table, posters on the walls, etc.
as §1, with “tasks.” for “tasks (Anger, et al., Animal test systems to study behavioral dysfunctions of neurodegenerative disorders, Neurotoxicology, 12, 403-13 (1991)).”
In the experiment rats were given Compound 1 orally on day 1 and the first test begun 90 minute later, six trials per day, for 3 consecutive days, to find the hidden platform (acquisition phase). The escape latency, i.e., the time required by the rat to find and climb onto the platform, was recorded for up to 120 sec. Each rat was allowed to remain on the platform for 30 sec, after which it was removed to its home cage.
A video camera was placed above the center of the pool for tracking the rat, and a video tracking system (Noldus) with online digital output directly fed data into a computer. Data were analyzed using EthoVision automated tracking system software (Noldus).
Compound 1 at both doses decreased the latency to the platform on day 3 of the experiment but not on days 1 and 2.
The relief of cognitive impairments was also shown in the use of Compound 6. […] Compound 6 at 10 mg/kg decreased the latency to the platform on days 2 and 3 of the experimentation.

With C[C@]12N[C@H](Cc3ccccc31)c1ccccc12 [MK-801, reference compound] the “memory tasks (latency to the platform) compared to normal controls” value was “significant impairment”.
